Legend:
[1] = UV-Vis absorption and fluorescence spectroscopy (spectral properties in aqueous media / PBS buffer); type: physicochemical; set-up: Brightness: unit not given here; settings: for Brightness / Stokes Shift (nm) / FWHMabs (nm) / λabs (nm) / FWHem (nm) / λem (nm) / ε (M^-1 cm-1) / ϕ: aqueous media; for FWHMabs (nm): absorption band width; for λabs (nm): absorption maximum; for FWHem (nm): emission band width; for λem (nm): emission maximum; for ε (M^-1 cm-1): extinction coefficient from Beer's Law plots; for ϕ: relative quantum yield, TMR and SiTMR as reference
Description: UV-Vis and fluorescence spectra were collected on a SpectraMax M5 spectrometer with a Microplate reader (Molecular Devices, Sunnyvale, CA). All absorbance spectra were reference corrected. Extinction coefficient was calculated from Beer’s Law plots of absorbance versus concentration. Relative quantum yields are reported using TMR and SiTMR as reference.

[2] = Absorption and fluorescence stability against solvent polarity changes (dioxane 20-80% in DI water); type: physicochemical; settings: compared with base fluorophores TMR and SiTMR (SiR)
Source text: FIG. 2D graphs normalized absorption (left) and fluorescence spectra (right) of fluorophores with varied percentages of dioxane (20-80%) in DI water resulting the polarity of the screening solvent systems changing in a gradient manner.
A. general rhodamine fluorophore structures including the classic TMR, SiTMR, and the sulfonated versions. […] This structural change results because the carboxylate anion attacks the central carbon forming a spirolactone, which is both colorless and non-fluorescent. […] C. […] This change in both absorbance and fluorescence intensity was alleviated using our sulfonated versions.

| Compound | Brightness [1] | Stokes Shift (nm) [1] [nm] | FWHMabs (nm) [1] [nm] | λabs (nm) [1] [nm] | FWHem (nm) [1] [nm] | λem (nm) [1] [nm] | ε (M^-1 cm-1) [1] | ϕ [1] | stability of absorbance and fluorescence intensity against solvent polarity changes [2] | brightness compared with the base fluorophore SiTMR ([1]; PBS buffer) |
| --- | --- | --- | --- | --- | --- | --- | --- | --- | --- | --- |
| Cc1ccccc1-c1c2cc/c(=[N+](/C)CCCS(=O)(=O)[O-])cc-2oc2cc(N(C)C)ccc12 [OF550] | 59 | 23 | 33 | 552 | 40 | 575 | 97,300 M^-1 cm-1 | 0.61 | substantially improved stability |  |
| C#Cc1cccc(Nc2ncnc3ccc(NC(=O)CCNC(=O)c4ccc(C5=C6C=C/C(=[N+](/C)CCCS(=O)(=O)[O-])C=C6[Si](C)(C)c6cc(N(C)C)ccc65)c(C)c4)cc23)c1 [OF650Erl(T)] | 7 | 17 | 38 | 656 | 41 | 673 | 43,400 M^-1 cm-1 | 0.16 |  |  |
| Cc1ccccc1C1=C2C=C/C(=[N+](/C)CCCS(=O)(=O)[O-])C=C2[Si](C)(C)c2cc(N(C)C)ccc21 [OF650] | 55 | 19 | 33 | 649 | 40 | 668 | 125,500 M^-1 cm-1 | 0.44 | substantially improved stability | five time greater |
| CN(C)c1ccc2c(c1)[Si](C)(C)C1=CC(=[N+](C)C)C=CC1=C2c1cc(C(=O)O)ccc1C(=O)[O-] [SiRCOOH, 4-carboxy-2-(7-(dimethylamino)-3-(dimethyliminio)-5,5-dimethyl-3,5-dihydrodibenzo[b,e]silin-10-yl)benzoate] | 29 | 22 | 39 | 645 | 42 | 667 | 64,700 M^-1 cm-1 | 0.45 |  |  |
| C#Cc1cccc(Nc2ncnc3ccc(NC(=O)CCNC(=O)c4ccc(C(=O)[O-])c(C5=C6C=CC(=[N+](C)C)C=C6[Si](C)(C)c6cc(N(C)C)ccc65)c4)cc23)c1 [SiRErl(T)] | 5 | 22 | 42 | 656 | 53 | 678 | 34,800 M^-1 cm-1 | 0.13 |  |  |
| CN(C)c1ccc2c(c1)[Si](C)(C)C1=CC(=[N+](C)C)C=CC1=C2c1cc(C(=O)NCCCn2cc(-c3cccc(Nc4ncnc5ccccc45)c3)nn2)ccc1C(=O)[O-] [SiRErl(UnT)] | 5 | 16 | 38 | 654 | 43 | 670 | 24,100 M^-1 cm-1 | 0.19 |  |  |
| CN(C)c1ccc2c(c1)[Si](C)(C)C1=CC(=[N+](C)C)C=CC1=C2c1cc(C(=O)NCCOCCOCCCCCCCl)ccc1C(=O)[O-] [SiRHALO] | 3 | 18 | 45 | 646 | 45 | 664 | 11,100 M^-1 cm-1 | 0.25 |  |  |
| CN(C)c1ccc2c(c1)[Si](C)(C)C1=CC(=[N+](C)C)C=CC1=C2c1ccccc1C(=O)O [SiR] | 7 | 20 | 39 | 642 | 41 | 662 | 19,200 M^-1 cm-1 | 0.35 | diminished rapidly |  |
| CN(C)c1ccc2c(-c3cc(C(=O)O)ccc3C(=O)[O-])c3ccc(=[N+](C)C)cc-3oc2c1 [TMRCOOH, 4-carboxy-2-(6-(dimethylamino)-3-(dimethyliminio)-3H-xanthen-9-yl)benzoate] | 49 | 26 | 42 | 550 | 44 | 576 | 83,800 M^-1 cm-1 | 0.58 |  |  |
| C#Cc1cccc(Nc2ncnc3ccc(NC(=O)CCNC(=O)c4ccc(C(=O)[O-])c(-c5c6ccc(=[N+](C)C)cc-6oc6cc(N(C)C)ccc56)c4)cc23)c1 [TMRErl(T)] | 21 | 24 | 39 | 563 | 42 | 587 | 33,100 M^-1 cm-1 | 0.62 |  |  |
| CN(C)c1ccc2c(-c3cc(C(=O)NCCCn4cc(-c5cccc(Nc6ncnc7ccccc67)c5)nn4)ccc3C(=O)[O-])c3ccc(=[N+](C)C)cc-3oc2c1 [TMRErl(UnT)] | 7 | 26 | 44 | 559 | 43 | 585 | 18,700 M^-1 cm-1 | 0.37 |  |  |
| CN(C)c1ccc2c(-c3cc(C(=O)NCc4ccc(COc5nc(N)nc6[nH]cnc56)cc4)ccc3C(=O)[O-])c3ccc(=[N+](C)C)cc-3oc2c1 [TMRSNAP] | 11 | 24 | 58 | 553 | 45 | 577 | 27,700 M^-1 cm-1 | 0.41 |  |  |
| CN(C)c1ccc2c(-c3ccccc3C(=O)[O-])c3ccc(=[N+](C)C)cc-3oc2c1 [TMR] | 33 | 25 | 38 | 549 | 42 | 574 | 60,900 M^-1 cm-1 | 0.54 |  |  |

From patent US20230287217A1, “Zwitterionic Cell-Permeant and Water-Soluble Rhodamine Dyes for Quantitative Imaging Applications” (OREGON HEALTH & SCIENCE UNIVERSITY, priority 2020, published 2023)
